Patent US20210353517A1, “PROCESS FOR PRODUCING A BIO-BASED SURFACTANT” (University College Dublin, priority 2018, published 2021)

What was measured:
Format in all cases: physicochemical
Foaming stability = settings: 10 s stirring at 1500 rpm, at respective CMC values
[1] = Drop shape analysis (wettability, dynamic contact angle); settings: solution at its CMC added to 20 μL deionised water drop
Protocol: The dynamic behaviour of a 20 μL deionised water drop after the addition of an equal volume of surfactant solution at critical micelle concentration was recorded with a video recording system and analysed by a dedicated plug-in (LB-ADSA) of ImageJ® software for image analysis. The sessile drop is positioned on a smooth and plan surface of a borosilicate glass slide without any microdefects. A contour recognition is initially carried out based on a grey-scale analysis of the image. In the second step, a geometrical model describing the drop shape is fitted to the contour. The contact angle is the angle between the calculated drop shape function and the sample surface.

[2] = Surface tension analysis (DuNOUY ring tensiometer); settings: at parity of concentration (w/v), 25° C., relative to SDS
Protocol: Surface tension analysis was performed with an interfacial tensiometer Cenco DuNOUY® 70545 model. In this methodology, a ring-shaped steel tool is pulled up from a surfactant solution and the corresponding millinewton per meter (mN/m) of force applied to break the surface tension is indicated. Increasingly diluted surfactant solutions are measured until the reference value of deionised water is reached (72 mN/m). The measurements were performed at 25° C.

[3] = Critical micelle concentration by conductivity assay; settings: conductivity at 25° C., relative to SDS
Protocol: Critical micelle concentration was estimated by a conductivity assay. In this assay a pen type EC-963 model conductivity meter tester was submerged into a milliQ® grade deionised water solution to have a zero reading of pS/cm. Increasing amounts of different surfactant solutions was added to this milliQ® water solution and the conductivity was measured at 25° C. The increasing conductivity is proportional to the surfactant activity. The change of slope in the two linear interpolating curves is an indication of the critical micelle concentration (CMC) point for the specific surfactant (Al-Soufi et al 2012).

foam decrease in volume over time (Foaming stability): 2 fold | foam decrease slower than SDS (Foaming stability): 3 times | foaming volume higher than SDS (Foaming stability): 1.5 fold | wettability (speed at which the contact angle of a water drop is broken) versus SDS [1]: higher that the SDS solution | surface tension value better than sodium dodecyl sulfate (SDS) [2]: 4 fold | outperformance of SDS at the specific CMC concentration (change of slope point of conductivity) [3]: 3.5 fold
SMILES: CCCCCCCCCC(CCOS(=O)(=O)O)OS(=O)(=O)O (stereo not drawn) [dodecyl (1,3) disulfate]
